Results published in ChEMBL document CHEMBL3991601, “The target landscape of clinical kinase drugs” (Science, 2017).
Activity calls are given as the source filed them. Rule as the data show it, for most assays here: actives have a measured Kd and inactives only a lower limit.

Assays:
[1] = target: Tyrosine-protein kinase ABL2 (Homo sapiens, UniProt P42684)
[2] = target: Cyclin-dependent kinase 13 (Homo sapiens, UniProt Q14004)
Ephrin type-A receptor 2 = Ephrin type-A receptor 2 (Homo sapiens, UniProt P29317)
Ephrin type-B receptor 4 = target: T1, Ephrin type-B receptor 4 (Homo sapiens, UniProt P54760)
T1 sequence (P54760 whole entry): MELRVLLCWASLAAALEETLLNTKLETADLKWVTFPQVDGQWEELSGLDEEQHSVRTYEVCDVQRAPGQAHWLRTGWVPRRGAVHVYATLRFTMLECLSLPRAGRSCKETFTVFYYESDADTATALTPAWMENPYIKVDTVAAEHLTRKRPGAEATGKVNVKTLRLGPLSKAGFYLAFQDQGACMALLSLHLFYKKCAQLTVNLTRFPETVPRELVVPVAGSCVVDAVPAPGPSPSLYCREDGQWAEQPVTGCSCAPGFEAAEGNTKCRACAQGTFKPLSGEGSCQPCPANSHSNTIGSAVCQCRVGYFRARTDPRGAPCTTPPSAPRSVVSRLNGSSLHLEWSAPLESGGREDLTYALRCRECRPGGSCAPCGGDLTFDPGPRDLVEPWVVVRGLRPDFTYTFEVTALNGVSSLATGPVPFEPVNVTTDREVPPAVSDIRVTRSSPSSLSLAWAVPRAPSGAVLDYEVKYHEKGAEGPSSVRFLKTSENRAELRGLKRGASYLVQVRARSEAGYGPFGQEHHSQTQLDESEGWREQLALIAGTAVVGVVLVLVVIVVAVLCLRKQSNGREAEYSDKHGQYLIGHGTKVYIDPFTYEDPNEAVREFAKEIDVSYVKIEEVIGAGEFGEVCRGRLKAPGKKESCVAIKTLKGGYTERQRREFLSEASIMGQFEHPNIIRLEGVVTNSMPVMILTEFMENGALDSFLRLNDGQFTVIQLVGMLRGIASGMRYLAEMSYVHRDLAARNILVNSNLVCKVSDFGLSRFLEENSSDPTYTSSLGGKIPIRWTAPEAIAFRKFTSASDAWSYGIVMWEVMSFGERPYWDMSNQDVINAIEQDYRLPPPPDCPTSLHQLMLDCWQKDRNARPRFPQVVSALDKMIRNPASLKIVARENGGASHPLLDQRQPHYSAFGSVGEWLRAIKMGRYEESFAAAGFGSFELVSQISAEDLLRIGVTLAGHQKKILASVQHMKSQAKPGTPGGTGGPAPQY

[3] = target: Putative heat shock protein HSP 90-beta 2 (Homo sapiens, UniProt Q58FF8)
Putative heat shock protein HSP 90-beta 2, sequence (Q58FF8 whole entry): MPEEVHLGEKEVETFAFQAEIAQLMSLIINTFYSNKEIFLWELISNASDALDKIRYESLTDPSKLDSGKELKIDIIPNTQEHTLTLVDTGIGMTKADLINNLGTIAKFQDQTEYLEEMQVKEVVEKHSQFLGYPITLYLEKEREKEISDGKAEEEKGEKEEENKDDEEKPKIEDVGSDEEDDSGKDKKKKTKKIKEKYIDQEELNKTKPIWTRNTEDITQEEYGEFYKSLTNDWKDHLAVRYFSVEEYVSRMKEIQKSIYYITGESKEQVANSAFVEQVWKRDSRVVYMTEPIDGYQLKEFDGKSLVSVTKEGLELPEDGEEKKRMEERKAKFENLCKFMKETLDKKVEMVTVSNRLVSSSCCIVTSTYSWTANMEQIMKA

[4] = target: Interleukin-1 receptor-associated kinase 1 (Homo sapiens, UniProt P51617)
[5] = target: T2, Interleukin-1 receptor-associated kinase 3 (Homo sapiens, UniProt Q9Y616)
T2 sequence (Q9Y616 whole entry): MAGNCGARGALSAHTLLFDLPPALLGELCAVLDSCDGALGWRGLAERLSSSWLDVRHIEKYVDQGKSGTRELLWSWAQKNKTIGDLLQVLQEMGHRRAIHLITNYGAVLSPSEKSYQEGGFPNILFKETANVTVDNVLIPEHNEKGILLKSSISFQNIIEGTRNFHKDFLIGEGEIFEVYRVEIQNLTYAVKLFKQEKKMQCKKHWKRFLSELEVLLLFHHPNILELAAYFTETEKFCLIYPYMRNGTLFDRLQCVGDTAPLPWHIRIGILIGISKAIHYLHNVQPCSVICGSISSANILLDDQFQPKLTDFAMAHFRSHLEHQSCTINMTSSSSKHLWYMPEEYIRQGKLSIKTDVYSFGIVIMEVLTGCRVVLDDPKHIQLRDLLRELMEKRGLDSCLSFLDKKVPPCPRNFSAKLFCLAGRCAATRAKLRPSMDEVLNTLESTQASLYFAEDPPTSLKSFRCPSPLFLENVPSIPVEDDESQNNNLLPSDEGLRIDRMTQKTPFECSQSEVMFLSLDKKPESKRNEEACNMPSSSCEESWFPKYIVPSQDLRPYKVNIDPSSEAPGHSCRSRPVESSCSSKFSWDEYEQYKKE

[6] = target: T3, Dual specificity mitogen-activated protein kinase kinase 6 (Homo sapiens, UniProt P52564)
T3 sequence (P52564 whole entry): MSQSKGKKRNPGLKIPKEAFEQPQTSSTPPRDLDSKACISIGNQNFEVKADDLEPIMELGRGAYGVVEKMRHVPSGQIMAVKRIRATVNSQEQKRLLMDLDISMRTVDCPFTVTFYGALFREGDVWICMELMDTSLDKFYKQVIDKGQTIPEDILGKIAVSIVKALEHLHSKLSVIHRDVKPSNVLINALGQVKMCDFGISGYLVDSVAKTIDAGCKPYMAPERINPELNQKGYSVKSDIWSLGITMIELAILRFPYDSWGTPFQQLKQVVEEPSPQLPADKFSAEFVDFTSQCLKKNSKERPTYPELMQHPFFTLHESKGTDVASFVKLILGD

[7] = target: Serine/threonine-protein kinase N1 (Homo sapiens, UniProt Q16512)
Serine/threonine-protein kinase N1, sequence (Q16512 whole entry): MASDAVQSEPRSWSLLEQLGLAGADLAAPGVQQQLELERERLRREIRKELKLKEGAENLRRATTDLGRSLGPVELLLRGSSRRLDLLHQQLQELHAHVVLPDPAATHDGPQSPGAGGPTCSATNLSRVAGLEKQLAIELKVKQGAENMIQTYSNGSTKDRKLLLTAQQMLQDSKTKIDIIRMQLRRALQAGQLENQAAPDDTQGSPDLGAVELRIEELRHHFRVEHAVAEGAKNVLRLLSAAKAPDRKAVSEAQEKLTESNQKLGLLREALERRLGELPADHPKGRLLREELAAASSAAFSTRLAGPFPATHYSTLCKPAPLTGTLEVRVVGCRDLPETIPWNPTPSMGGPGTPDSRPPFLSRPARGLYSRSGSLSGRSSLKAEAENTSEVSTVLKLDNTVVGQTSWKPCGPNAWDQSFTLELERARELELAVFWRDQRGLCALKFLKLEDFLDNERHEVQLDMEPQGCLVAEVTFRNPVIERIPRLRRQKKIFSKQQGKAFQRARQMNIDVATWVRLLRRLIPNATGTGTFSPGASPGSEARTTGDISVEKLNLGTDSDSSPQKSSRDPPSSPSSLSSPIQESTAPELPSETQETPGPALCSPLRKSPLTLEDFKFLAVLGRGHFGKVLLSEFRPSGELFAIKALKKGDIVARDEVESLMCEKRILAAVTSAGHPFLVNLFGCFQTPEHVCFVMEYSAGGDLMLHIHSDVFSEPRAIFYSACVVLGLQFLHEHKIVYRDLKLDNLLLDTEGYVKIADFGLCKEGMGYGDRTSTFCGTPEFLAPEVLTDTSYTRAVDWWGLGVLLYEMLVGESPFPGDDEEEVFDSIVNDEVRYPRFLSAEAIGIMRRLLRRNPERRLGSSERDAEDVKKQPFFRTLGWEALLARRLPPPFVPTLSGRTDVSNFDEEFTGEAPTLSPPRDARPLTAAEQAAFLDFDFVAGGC

[8] = target: Protein-tyrosine kinase 2-beta (Homo sapiens, UniProt Q14289)
[9] = target: Structural maintenance of chromosomes protein 2 (Homo sapiens, UniProt O95347)
[10] = target: T4, Serine/threonine-protein kinase STK11 (Homo sapiens, UniProt Q15831)
T4 sequence (Q15831 whole entry): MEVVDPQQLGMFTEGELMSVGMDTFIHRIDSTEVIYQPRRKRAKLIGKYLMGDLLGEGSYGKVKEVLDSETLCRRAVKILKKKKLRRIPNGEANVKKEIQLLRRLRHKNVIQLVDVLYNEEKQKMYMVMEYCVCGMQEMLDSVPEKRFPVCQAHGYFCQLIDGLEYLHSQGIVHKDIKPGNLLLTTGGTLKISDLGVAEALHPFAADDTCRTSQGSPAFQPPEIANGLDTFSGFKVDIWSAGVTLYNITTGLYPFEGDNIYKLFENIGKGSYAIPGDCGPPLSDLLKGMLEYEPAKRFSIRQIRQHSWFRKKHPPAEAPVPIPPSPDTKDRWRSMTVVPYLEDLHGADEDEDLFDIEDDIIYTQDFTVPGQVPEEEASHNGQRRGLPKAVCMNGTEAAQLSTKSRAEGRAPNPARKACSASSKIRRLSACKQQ

[11] = target: Serine/threonine-protein kinase 26 (Homo sapiens, UniProt Q9P289)
Serine/threonine-protein kinase 26, sequence (Q9P289 whole entry): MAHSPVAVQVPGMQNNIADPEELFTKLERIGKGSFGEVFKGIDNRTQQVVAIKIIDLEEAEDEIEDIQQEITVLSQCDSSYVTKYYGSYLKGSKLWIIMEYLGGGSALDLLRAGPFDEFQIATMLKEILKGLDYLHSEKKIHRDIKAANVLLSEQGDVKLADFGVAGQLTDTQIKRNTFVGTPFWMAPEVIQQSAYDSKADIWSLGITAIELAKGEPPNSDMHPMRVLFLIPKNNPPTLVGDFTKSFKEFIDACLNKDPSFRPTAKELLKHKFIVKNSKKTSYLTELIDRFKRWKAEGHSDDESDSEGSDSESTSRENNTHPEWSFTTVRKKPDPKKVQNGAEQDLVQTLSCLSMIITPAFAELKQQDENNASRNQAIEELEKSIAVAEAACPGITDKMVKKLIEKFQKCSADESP

[12] = target: Ras-related protein Rab-6A (Homo sapiens, UniProt P20340)
Ras-related protein Rab-6A, sequence (P20340 whole entry): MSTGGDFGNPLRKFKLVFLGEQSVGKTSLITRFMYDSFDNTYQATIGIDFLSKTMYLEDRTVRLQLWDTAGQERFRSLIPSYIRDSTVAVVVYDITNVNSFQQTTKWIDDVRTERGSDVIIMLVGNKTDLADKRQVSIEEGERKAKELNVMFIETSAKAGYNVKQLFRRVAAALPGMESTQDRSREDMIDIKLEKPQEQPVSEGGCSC
Also: in the data inactive means no Kd found up to 30 µM.

Tyrosine-protein kinase ABL2, sequence (P42684 whole entry): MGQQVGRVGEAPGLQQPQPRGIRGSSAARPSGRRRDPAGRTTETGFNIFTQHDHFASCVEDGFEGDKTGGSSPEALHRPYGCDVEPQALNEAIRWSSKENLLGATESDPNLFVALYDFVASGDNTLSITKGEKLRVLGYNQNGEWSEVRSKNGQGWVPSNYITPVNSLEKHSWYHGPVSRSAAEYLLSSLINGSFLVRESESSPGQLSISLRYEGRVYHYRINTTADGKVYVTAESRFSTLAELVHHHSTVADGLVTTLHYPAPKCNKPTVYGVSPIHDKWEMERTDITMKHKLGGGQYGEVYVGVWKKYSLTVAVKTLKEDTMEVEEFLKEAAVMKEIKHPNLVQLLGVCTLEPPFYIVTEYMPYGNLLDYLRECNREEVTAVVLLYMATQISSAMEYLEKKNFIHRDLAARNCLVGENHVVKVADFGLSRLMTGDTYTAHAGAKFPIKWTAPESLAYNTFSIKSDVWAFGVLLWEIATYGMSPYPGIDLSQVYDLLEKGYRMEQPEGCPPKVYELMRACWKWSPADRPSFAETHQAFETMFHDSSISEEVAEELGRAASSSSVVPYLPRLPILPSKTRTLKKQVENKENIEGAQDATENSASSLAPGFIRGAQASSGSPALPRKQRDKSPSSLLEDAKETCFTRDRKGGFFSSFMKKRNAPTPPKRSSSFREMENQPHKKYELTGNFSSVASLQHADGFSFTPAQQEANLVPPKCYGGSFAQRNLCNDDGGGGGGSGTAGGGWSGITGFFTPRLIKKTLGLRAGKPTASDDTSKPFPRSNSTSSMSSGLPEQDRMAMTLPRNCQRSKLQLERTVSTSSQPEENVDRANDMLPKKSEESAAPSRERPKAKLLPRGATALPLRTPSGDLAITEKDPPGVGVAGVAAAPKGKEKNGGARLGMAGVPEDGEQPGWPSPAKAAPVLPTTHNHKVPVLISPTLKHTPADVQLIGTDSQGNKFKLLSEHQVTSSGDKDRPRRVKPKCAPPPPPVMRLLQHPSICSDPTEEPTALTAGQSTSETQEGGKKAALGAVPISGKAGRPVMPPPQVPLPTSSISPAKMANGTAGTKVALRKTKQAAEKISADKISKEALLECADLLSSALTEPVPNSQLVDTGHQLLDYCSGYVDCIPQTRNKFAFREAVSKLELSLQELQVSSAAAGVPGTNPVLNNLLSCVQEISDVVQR
Cyclin-dependent kinase 13, sequence (Q14004 whole entry): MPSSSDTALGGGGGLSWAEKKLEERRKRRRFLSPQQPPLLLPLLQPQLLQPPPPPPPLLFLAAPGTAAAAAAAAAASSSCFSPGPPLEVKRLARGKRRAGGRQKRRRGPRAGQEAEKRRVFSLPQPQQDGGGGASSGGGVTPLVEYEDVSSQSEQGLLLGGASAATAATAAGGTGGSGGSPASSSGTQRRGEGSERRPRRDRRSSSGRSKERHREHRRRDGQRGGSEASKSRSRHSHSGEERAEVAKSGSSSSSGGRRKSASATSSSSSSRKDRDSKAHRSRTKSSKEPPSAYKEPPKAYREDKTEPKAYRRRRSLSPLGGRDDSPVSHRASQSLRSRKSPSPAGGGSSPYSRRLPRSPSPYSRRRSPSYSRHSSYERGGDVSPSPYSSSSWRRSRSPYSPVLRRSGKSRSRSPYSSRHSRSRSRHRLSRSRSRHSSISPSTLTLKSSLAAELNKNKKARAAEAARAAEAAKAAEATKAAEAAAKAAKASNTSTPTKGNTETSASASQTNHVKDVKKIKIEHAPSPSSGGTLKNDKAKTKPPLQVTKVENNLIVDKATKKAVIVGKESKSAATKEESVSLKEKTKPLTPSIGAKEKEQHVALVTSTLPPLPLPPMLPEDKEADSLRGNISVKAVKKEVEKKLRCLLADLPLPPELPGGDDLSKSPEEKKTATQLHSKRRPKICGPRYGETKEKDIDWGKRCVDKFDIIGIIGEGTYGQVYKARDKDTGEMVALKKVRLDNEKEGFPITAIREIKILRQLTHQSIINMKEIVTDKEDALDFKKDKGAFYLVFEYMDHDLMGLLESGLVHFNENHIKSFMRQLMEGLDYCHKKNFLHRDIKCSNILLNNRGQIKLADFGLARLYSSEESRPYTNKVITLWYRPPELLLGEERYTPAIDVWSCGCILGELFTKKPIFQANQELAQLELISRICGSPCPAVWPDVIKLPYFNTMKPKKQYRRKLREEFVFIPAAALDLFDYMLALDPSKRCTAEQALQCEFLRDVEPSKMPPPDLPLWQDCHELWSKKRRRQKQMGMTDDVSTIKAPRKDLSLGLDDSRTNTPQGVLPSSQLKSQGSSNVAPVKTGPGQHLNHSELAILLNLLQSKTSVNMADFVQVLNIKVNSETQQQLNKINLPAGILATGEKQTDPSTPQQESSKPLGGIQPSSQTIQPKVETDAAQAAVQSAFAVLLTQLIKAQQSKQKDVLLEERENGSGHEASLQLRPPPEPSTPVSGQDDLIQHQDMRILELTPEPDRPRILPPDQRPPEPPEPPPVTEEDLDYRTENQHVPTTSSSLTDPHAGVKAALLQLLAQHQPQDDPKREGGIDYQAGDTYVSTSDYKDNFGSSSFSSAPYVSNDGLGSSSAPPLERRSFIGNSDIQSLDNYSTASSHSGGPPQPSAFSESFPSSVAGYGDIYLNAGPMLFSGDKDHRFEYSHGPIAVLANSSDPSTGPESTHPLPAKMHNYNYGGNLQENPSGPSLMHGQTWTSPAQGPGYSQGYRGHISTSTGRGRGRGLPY

SMILES	Kd [1]	Kd [2]	Kd (Ephrin type-A receptor 2)	Kd (Ephrin type-B receptor 4)	Kd [3]	Kd [4]	Kd [5]	Kd [6]	Kd [7]	Kd [8]	Kd [9]	Kd [10]	Kd [11]	Kd [12]
O=c1[nH]c([C@@H]2CCCN2)nc2c1oc1ccc(Cl)cc12	> 30 µM (inactive)	> 30 µM (inactive)	> 30 µM (inactive)	> 30 µM (inactive)	> 30 µM (inactive)	> 30 µM (inactive)	> 30 µM (inactive)	> 30 µM (inactive)	> 30 µM (inactive)	> 30 µM (inactive)	> 30 µM (inactive)	> 30 µM (inactive)	> 30 µM (inactive)	–
Cn1cc(-c2[nH]c3cc(NC(=O)[C@H](N)C4CCCCC4)cc4c3c2C=NNC4=O)cn1	1.37 µM (active)	> 30 µM (inactive)	> 30 µM (inactive)	> 30 µM (inactive)	> 30 µM (inactive)	> 30 µM (inactive)	> 30 µM (inactive)	> 30 µM (inactive)	0.119 µM (active)	> 30 µM (inactive)	> 30 µM (inactive)	4.37 µM (active)	> 30 µM (inactive)	> 30 µM (inactive)
CCN1CCN(Cc2ccc(Nc3ncc(F)c(-c4cc(F)c5nc(C)n(C(C)C)c5c4)n3)nc2)CC1 [ABEMACICLIB]	> 30 µM (inactive)	> 30 µM (inactive)	> 30 µM (inactive)	> 30 µM (inactive)	> 30 µM (inactive)	0.126 µM (active)	> 30 µM (inactive)	> 30 µM (inactive)	> 30 µM (inactive)	> 30 µM (inactive)	> 30 µM (inactive)	> 30 µM (inactive)	> 30 µM (inactive)	> 30 µM (inactive)
C=CCn1c(=O)c2cnc(Nc3ccc(N4CCN(C)CC4)cc3)nc2n1-c1cccc(C(C)(C)O)n1 [ADAVOSERTIB]	> 30 µM (inactive)	> 30 µM (inactive)	> 30 µM (inactive)	> 30 µM (inactive)	> 30 µM (inactive)	> 30 µM (inactive)	> 30 µM (inactive)	> 30 µM (inactive)	> 30 µM (inactive)	> 30 µM (inactive)	> 30 µM (inactive)	> 30 µM (inactive)	> 30 µM (inactive)	> 30 µM (inactive)
CCc1cc2c(cc1N1CCC(N3CCOCC3)CC1)C(C)(C)c1[nH]c3cc(C#N)ccc3c1C2=O [ALECTINIB]	> 30 µM (inactive)	> 30 µM (inactive)	> 30 µM (inactive)	> 30 µM (inactive)	> 30 µM (inactive)	> 30 µM (inactive)	> 30 µM (inactive)	> 30 µM (inactive)	> 30 µM (inactive)	> 30 µM (inactive)	> 30 µM (inactive)	> 30 µM (inactive)	> 30 µM (inactive)	> 30 µM (inactive)
